Measured values taken from patent US9028845B2, “Chimeric immunomodulatory compounds and methods of using the same-IV” (Dynavax Technologies Corporation, priority 2001, dated 2015).
Entries after “also recorded” stand apart in the source; their conditions may differ.

System: human PBMCs
Assay: Human PBMC cytokine response assay (IFN-γ and IFN-α in cell-free medium by ELISA), with or without cPLGA;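 as to IFN-α (pg/ml) mean: 20 µg/mL compound for 24 hours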;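 as to IFN-γ (pg/ml) mean: 20 µg/mL compound for 24 hours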
Format: cell-based
Conditions: for IFN-α mean / IFN-γ mean: mean of donors; for immunomodulatory activity (IFN-γ / IFN-α secretion), in words: used alone (no cPLGA)
[1] = mean of donors 28057-28060, Table 16
[2] = mean of donors 110, 112, 119, 120, Table 14
[3] = mean of donors 28185-28188, Table 15

5′-TCGTCGA-3′-HEG-5′-AACGTTC-3′-HEG-5′-AGATGAT-3′ [Compound C-54]
IFN-α (Table 13, donor 28156): 8 pg/mL | IFN-γ (Table 13, donor 28156): 297 pg/mL | IFN-α (Table 13, donor 28157): 96 pg/mL | IFN-γ (Table 13, donor 28157): 378 pg/mL | IFN-α (Table 13, donor 28158): 8 pg/mL | IFN-γ (Table 13, donor 28158): 88 pg/mL | IFN-α (Table 13, donor 28159): 13 pg/mL | IFN-γ (Table 13, donor 28159): 218 pg/mL | IFN-α mean (Table 13): 31 pg/mL | IFN-γ mean (Table 13): 245 pg/mL

5′-TCGTC-3′-HEG-5′-TCGTC-3′-HEG-5′-TCGTC-3′-HEG-5′-TCGTC-3′ [Compound C-43]
IFN-α (Table 10, donor 28042): 0 pg/mL | IFN-γ (Table 10, donor 28042): 128 pg/mL | IFN-α (Table 10, donor 28043): 14 pg/mL | IFN-γ (Table 10, donor 28043): 536 pg/mL | IFN-α (Table 10, donor 28044): 20 pg/mL | IFN-γ (Table 10, donor 28044): 566 pg/mL | IFN-α (Table 10, donor 28045): 0 pg/mL | IFN-γ (Table 10, donor 28045): 16 pg/mL | IFN-α mean (Table 10): 8 pg/mL | IFN-γ mean (Table 10): 312 pg/mL | activity when formulated with cPLGA, in words: induced considerable IFN-γ and IFN-α when formulated with cPLGA | IFN-γ induction, in words (used alone): induce IFN-γ when used alone

5′-TCGTCG-3′-(TEG)8-5′-T-3′ [Compound C-15]
IFN-α (donor 28057, Table 16): 0 pg/mL | IFN-γ (donor 28057, Table 16): 5 pg/mL | IFN-α (donor 28058, Table 16): 0 pg/mL | IFN-γ (donor 28058, Table 16): 3 pg/mL | IFN-α (donor 28059, Table 16): 0 pg/mL | IFN-γ (donor 28059, Table 16): 0 pg/mL | IFN-α (donor 28060, Table 16): 0 pg/mL | IFN-γ (donor 28060, Table 16): 1 pg/mL | activity when formulated with cPLGA, in words: all had significant activity when formulated on cPLGA | IFN-α (pg/ml) mean [1]: 0 pg/mL | IFN-γ (pg/ml) mean [1]: 2 pg/mL | immunomodulatory activity (IFN-γ / IFN-α secretion), in words: None of the CICs was active when used alone

5′-TCGTCGA-3′-HEG-5′-ACGTTCG-3′-HEG-5′-GGGGGG-3′ [Compound C-49]
IFN-α (Table 11, donor 28042): 30 pg/mL | IFN-γ (Table 11, donor 28042): 367 pg/mL | IFN-α (Table 11, donor 28043): 8 pg/mL | IFN-γ (Table 11, donor 28043): 433 pg/mL | IFN-α (Table 11, donor 28044): 100 pg/mL | IFN-γ (Table 11, donor 28044): 767 pg/mL | IFN-α (Table 11, donor 28045): 88 pg/mL | IFN-γ (Table 11, donor 28045): 353 pg/mL | IFN-α mean (Table 11): 57 pg/mL | IFN-γ mean (Table 11): 480 pg/mL

5′-TCG-3′-HEG-5′-TCG-3′-HEG-5′-TCG-3′-HEG-5′-TCG-3′-HEG-5′-TCG-3′-HEG-5′-TCG-3′ [Compound C-32]
IFN-α (Table 9, donor 28089): 285 pg/mL | IFN-γ (Table 9, donor 28089): 0 pg/mL | IFN-α (Table 9, donor 28090): 31 pg/mL | IFN-γ (Table 9, donor 28090): 5 pg/mL | IFN-α (Table 9, donor 28098): 46 pg/mL | IFN-γ (Table 9, donor 28098): 11 pg/mL | IFN-α (Table 9, donor 28099): 59 pg/mL | IFN-γ (Table 9, donor 28099): 35 pg/mL | IFN-α mean (Table 9): 106 pg/mL | IFN-γ mean (Table 9): 13 pg/mL | IFN-α (Table 10, donor 28042): 0 pg/mL | IFN-γ (Table 10, donor 28042): 91 pg/mL | IFN-α (Table 10, donor 28043): 0 pg/mL | IFN-γ (Table 10, donor 28043): 19 pg/mL | IFN-α (Table 10, donor 28044): 8 pg/mL | IFN-γ (Table 10, donor 28044): 78 pg/mL | IFN-α (Table 10, donor 28045): 0 pg/mL | IFN-γ (Table 10, donor 28045): 17 pg/mL | IFN-α mean (Table 10): 2 pg/mL | IFN-γ mean (Table 10): 51 pg/mL | activity when formulated with cPLGA, in words: more activity when formulated with cPLGA; also recorded: induced considerable IFN-γ and IFN-α when formulated with cPLGA | immunomodulatory activity (IFN-γ / IFN-α secretion), in words: had activity when used alone

5′-AGATGAT-3′-HEG-5′-TCGTCGA-3′-HEG-5′-ACGTTCG-3′ [Compound C-59]
IFN-α (donor 110, Table 14): 2 pg/mL | IFN-γ (donor 110, Table 14): 256 pg/mL | IFN-α (donor 112, Table 14): 6 pg/mL | IFN-γ (donor 112, Table 14): 52 pg/mL | IFN-α (donor 119, Table 14): 2 pg/mL | IFN-γ (donor 119, Table 14): 28 pg/mL | IFN-α (donor 120, Table 14): 2 pg/mL | IFN-γ (donor 120, Table 14): 40 pg/mL | IFN-α (pg/ml) mean [2]: 3 pg/mL | IFN-γ (pg/ml) mean [2]: 94 pg/mL

HEG-5′-TCGTCG-3′-HEG-5′-ACGTTCG-3′-HEG-5′-AGATGAT-3′-TEG (phosphodiester linkages) [Compound C-31]
IFN-α (Table 9, donor 28089): 158 pg/mL | IFN-γ (Table 9, donor 28089): 0 pg/mL | IFN-α (Table 9, donor 28090): 26 pg/mL | IFN-γ (Table 9, donor 28090): 0 pg/mL | IFN-α (Table 9, donor 28098): 62 pg/mL | IFN-γ (Table 9, donor 28098): 0 pg/mL | IFN-α (Table 9, donor 28099): 29 pg/mL | IFN-γ (Table 9, donor 28099): 2 pg/mL | IFN-α mean (Table 9): 69 pg/mL | IFN-γ mean (Table 9): 0 pg/mL | activity when formulated with cPLGA, in words: good activity when formulated with cPLGA | immunomodulatory activity (IFN-γ / IFN-α secretion), in words: inactive as a CIC alone

Starburst Dendrimer ® -(5′-TGACTGTGAACGTTCGAGATGA-3′)x (X range = 3-16) (SEQ ID NO: 2) (See Ex. 24) [Compound C-102]
IFN-a (donor 28185, Table 15): 1880 pg/mL | IFN-g (donor 28185, Table 15): 158 pg/mL | IFN-a (donor 28186, Table 15): 187 pg/mL | IFN-g (donor 28186, Table 15): 43 pg/mL | IFN-a (donor 28187, Table 15): 109 pg/mL | IFN-g (donor 28187, Table 15): 101 pg/mL | IFN-a (donor 28188, Table 15): 4 pg/mL | IFN-g (donor 28188, Table 15): 6 pg/mL | IFN-a (pg/ml) mean [3]: 545 pg/mL | IFN-g (pg/ml) mean [3]: 77 pg/mL | IFN-a (pg/ml) ×2 (mean ×2, Table 15): 1090 pg/mL | IFN-g (pg/ml) ×4 (mean ×4, Table 15): 307 pg/mL | IFN-α induction, in words (used alone): significantly more IFN-α activity than the P-6 sequence alone
